Reference: patent US9670189B2, “Substituted condensed pyrimidine compounds” (GRÜNENTHAL GMBH, priority 2013, dated 2017)

Target: T1, human PDE4B1 (Homo sapiens, UniProt Q07343)
T1 construct: host or cells: Sf9 cells
Experiment: cAMP HTRF assay to determine the activity of hPDE4B1
Type: biochemical
Conditions: for inhibition at 1 µM: 1 μM test concentration, human recombinant PDE4B1, cAMP 40 nM, read-out: Inhibition at 1 μM test concentration [%] (Percentage inhibition of PDE4B); for IC50: measured according to the cAMP HTRF hPDE4B1 assay, read-out: PDE4B IC50
Experimental: cAMP HTRF® Assay to Determine the Activity of hPDE4B1
The inhibiting effect of the compounds on the enzyme activity of human PDE4B1 was measured by the quantification of 5′-adenosine monophosphate (5′-AMP), which is formed from 3′,5′-adenosine monophosphate (cAMP). Human recombinant enzyme, expressed in Sf9 cells, and the HTRF (homogeneous time-resolved fluorescence) detection method were used in the assay.
The test compound or water (control) was mixed with the human recombinant PDE4B1 enzyme (4.8 U) in a buffer consisting of 44.4 mM tris-HCl, 5.28 mM MgCl2, 2.64 mM DTT and 0.044% Tween 20 (pH 7.8). After adding the cAMP enzyme substrate (final concentration 40 nM) the mixture was incubated for 30 minutes at room temperature. Then a fluorescence acceptor (Dye2 marked with cAMP), a fluorescence donor (anti-cAMP antibody marked with a europium cryptate) and the non-specific phosphodiesterase inhibitor IBMX (3-isobutyl-1-methylxanthine; final concentration 1 mM) were added. After 60 minutes the fluorescence transfer, which correlates with the amount of remaining cAMP, was measured with a microplate reader (Rubystar, BMG) at λex=337 nm, λem=620 nm and λem=665 nm. The enzyme activity was calculated from the quotient formed from the measured signal at 665 nm and that at 620 nm. The result was expressed as the percentage inhibition of enzyme activity of the control (without PDE4 inhibitor) (literature: N. Saldou et al., Comparison of recombinant human PDE4 isoforms: interaction with substrate and inhibitors, Cell. Signal. Vol. 10, No. 6, 427-440, 1998). The enzyme was omitted for measurement of the basal control.

T1 sequence (Q07343 whole entry): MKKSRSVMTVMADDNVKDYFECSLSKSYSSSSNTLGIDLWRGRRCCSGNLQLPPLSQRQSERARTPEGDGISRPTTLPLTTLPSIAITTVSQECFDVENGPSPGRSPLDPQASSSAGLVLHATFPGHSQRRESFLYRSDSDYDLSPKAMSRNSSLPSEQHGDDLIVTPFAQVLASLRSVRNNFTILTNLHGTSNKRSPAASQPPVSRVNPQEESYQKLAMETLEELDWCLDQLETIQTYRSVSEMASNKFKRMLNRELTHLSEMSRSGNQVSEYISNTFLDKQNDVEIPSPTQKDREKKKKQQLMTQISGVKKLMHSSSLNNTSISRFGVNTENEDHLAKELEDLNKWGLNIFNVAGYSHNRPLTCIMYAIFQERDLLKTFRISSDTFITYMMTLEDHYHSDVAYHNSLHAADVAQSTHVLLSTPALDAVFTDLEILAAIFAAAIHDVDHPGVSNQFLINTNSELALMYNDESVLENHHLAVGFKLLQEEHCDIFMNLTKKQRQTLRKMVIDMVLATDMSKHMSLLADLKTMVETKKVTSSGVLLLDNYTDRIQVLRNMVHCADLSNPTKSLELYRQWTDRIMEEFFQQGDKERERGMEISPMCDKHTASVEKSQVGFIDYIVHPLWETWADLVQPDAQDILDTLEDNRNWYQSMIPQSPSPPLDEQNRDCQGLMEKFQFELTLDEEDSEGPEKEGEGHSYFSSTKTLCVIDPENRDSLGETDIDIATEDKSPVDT

SMILES	inhibition at 1 µM [%]	IC50 [µM]
COc1ccc(-c2nc3c(c(Oc4ccc(CC(=O)O)cc4)n2)CCC3)cc1F [Compound 1, 2-(4-(2-(3-Fluoro-4-methoxyphenyl)-6,7-dihydro-5H-cyclopenta[d]pyrimidin-4-yloxy)phenyl)acetic acid]	74	–
COc1ccc(-c2nc3c(c(Oc4ccc(CC(=O)O)cc4)n2)CCC3)cc1Cl [Compound 2, 2-(4-(2-(3-Chloro-4-methoxyphenyl)-6,7-dihydro-5H-cyclopenta[d]pyrimidin-4-yloxy)phenyl)acetic acid]	75	–
O=C(O)Cc1ccc(Oc2nc(-c3ccc(F)c(F)c3)nc3c2CCC3)cc1 [Compound 3, 2-(4-(2-(3,4-Difluorophenyl)-6,7-dihydro-5H-cyclopenta[d]pyrimidin-4-yloxy)phenyl)acetic acid]	30	–
COc1ccc(-c2nc3c(c(Oc4ccc(C(=O)O)cc4)n2)CCC3)cc1F [Compound 4, 4-(2-(3-Fluoro-4-methoxyphenyl)-6,7-dihydro-5H-cyclopenta[d]pyrimidin-4-yloxy)benzoic acid]	62	–
COc1ccc(-c2nc3c(c(Oc4ccc(C(=O)O)cc4)n2)CCC3)cc1Cl [Compound 5, 4-(2-(3-Chloro-4-methoxyphenyl)-6,7-dihydro-5H-cyclopenta[d]pyrimidin-4-yloxy)benzoic acid]	71	–
O=C(O)c1ccc(Oc2nc(-c3ccc(F)c(F)c3)nc3c2CCC3)cc1 [Compound 6, 4-(2-(3,4-Difluorophenyl)-6,7-dihydro-5H-cyclopenta[d]pyrimidin-4-yloxy)benzoic acid]	55	–
O=C(O)Cc1ccc(Oc2nc(-c3ccc(Cl)s3)nc3c2CCC3)cc1 [Compound 7, 2-(4-(2-(5-Chlorothiophen-2-yl)-6,7-dihydro-5H-cyclopenta[d]pyrimidin-4-yloxy)phenyl)acetic acid]	77	< 0.1
O=C(O)c1ccc(Oc2nc(-c3ccc(Cl)s3)nc3c2CCC3)cc1 [Compound 8, 4-(2-(5-Chlorothiophen-2-yl)-6,7-dihydro-5H-cyclopenta[d]pyrimidin-4-yloxy)benzoic acid]	84	–
O=C(O)Cc1ccc(Cc2nc(-c3ccc(Cl)s3)nc3c2CCC3)cc1 [Compound 9, 2-(4-((2-(5-Chlorothiophen-2-yl)-6,7-dihydro-5H-cyclopenta[d]pyrimidin-4-yl)methyl)phenyl)acetic acid]	75	–
O=C(O)Cc1ccc(Oc2nc(-c3ccc(Cl)s3)nc3c2CCCC3)cc1 [Compound 10, 2-(4-(2-(5-Chlorothiophen-2-yl)-5,6,7,8-tetrahydroquinazolin-4-yloxy)phenyl)acetic acid]	49	–
O=C(O)c1ccc(Oc2nc(-c3ccc(Cl)s3)nc3c2CCCC3)cc1 [Compound 11, 4-(2-(5-Chlorothiophen-2-yl)-5,6,7,8-tetrahydroquinazolin-4-yloxy)benzoic acid]	44	–
O=C(O)Cc1ccc(Oc2nc(-c3ccc(Cl)s3)nc3c2CC(F)(F)CC3)cc1 [Compound 12, 2-(4-(2-(5-Chlorothiophen-2-yl)-6,6-difluoro-5,6,7,8-tetrahydroquinazolin-4-yloxy)phenyl)acetic acid]	23	–
O=C(O)Cc1ccc(Oc2nc(-c3ccc(O)c(Cl)c3)nc3c2CCC3)cc1 [Compound 13, 2-(4-(2-(3-Chloro-4-hydroxyphenyl)-6,7-dihydro-5H-cyclopenta[d]pyrimidin-4-yloxy)phenyl)acetic acid]	72	–
O=C(O)Cc1ccc(Oc2nc(-c3ccc(F)s3)nc3c2CS(=O)(=O)C3)cc1 [Compound 15, 2-[4-[[2-(5-Fluoro-thiophen-2-yl)-6,6-dioxo-5,7-dihydro-thieno[3,4-d]pyrimidin-4-yl]oxy]-phenyl]-acetic acid]	86	< 0.1

Continued, values first:

inhibition at 1 µM [%]	IC50 [µM]	SMILES
89	< 0.1	COc1ccc(-c2nc3c(c(Oc4ccc(CC(=O)O)cc4)n2)CS(=O)(=O)C3)cc1F [Compound 16, 2-[4-[[2-(3-Fluoro-4-methoxy-phenyl)-6,6-dioxo-5,7-dihydro-thieno[3,4-d]pyrimidin-4-yl]oxy]-phenyl]-acetic acid]
95	< 0.1	COc1ccc(-c2nc3c(c(Oc4ccc(CC(=O)O)cc4)n2)CS(=O)(=O)C3)cc1Cl [Compound 17, 2-[4-[[2-(3-Chloro-4-methoxy-phenyl)-6,6-dioxo-5,7-dihydro-thieno[3,4-d]pyrimidin-4-yl]oxy]-phenyl]-acetic acid]
112	< 0.1	COc1ccc(-c2nc3c(c(Oc4ccc(CC(=O)O)cc4)n2)CS(=O)(=O)C3)cc1 [Compound 18, 2-[4-[[2-(4-Methoxyphenyl)-6,6-dioxo-5,7-dihydro-thieno[3,4-d]pyrimidin-4-yl]oxy]-phenyl]-acetic acid]
98	< 0.1	O=C(O)Cc1ccc(Oc2nc(-c3ccc(Cl)s3)nc3c2CSC3)cc1 [Compound 19, 2-(4-(2-(5-Chlorothiophen-2-yl)-5,7-dihydrothieno[3,4-d]pyrimidin-4-yloxy)phenyl)acetic acid]
103	< 0.1	O=C(O)Cc1ccc(Oc2nc(-c3ccc(Cl)s3)nc3c2C[S+]([O-])C3)cc1 (stereo not shown) [Compound 20, 2-[4-[[2-(5-Chloro-thiophen-2-yl)-6-oxo-5,7-dihydro-thieno[3,4-d]pyrimidin-4-yl]oxy]-phenyl]-acetic acid]
91	< 0.1	O=C(O)Cc1ccc(Oc2nc(-c3ccc(Cl)s3)nc3c2CS(=O)(=O)C3)cc1 [Compound 21, 2-[4-[[2-(5-Chloro-thiophen-2-yl)-6,6-dioxo-5,7-dihydro-thieno[3,4-d]pyrimidin-4-yl]oxy]-phenyl]-acetic acid]
50	–	O=C(O)Cc1ccc(Oc2nc(-c3ccc(Cl)s3)nc3c2CSCC3)cc1 [Compound 22, 2-(4-(2-(5-Chlorothiophen-2-yl)-7,8-dihydro-5H-thiopyrano[4,3-d]pyrimidin-4-yloxy)phenyl)acetic acid]
18	–	O=C(O)Cc1ccc(Oc2nc(-c3ccc(Cl)s3)nc3c2C[S+]([O-])CC3)cc1 (stereo not shown) [Compound 23, 2-[4-[[2-(5-Chloro-thiophen-2-yl)-6-oxo-7,8-dihydro-5H-thiopyrano[4,3-d]pyrimidin-4-yl]oxy]-phenyl]-acetic acid]
33	–	O=C(O)Cc1ccc(Oc2nc(-c3ccc(Cl)s3)nc3c2CS(=O)(=O)CC3)cc1 [Compound 24, 2-[4-[[2-(5-Chloro-thiophen-2-yl)-6,6-dioxo-7,8-dihydro-5H-thiopyrano[4,3-d]pyrimidin-4-yl]oxy]-phenyl]-acetic acid]
55	–	O=C(O)Cc1ccc(Oc2nc(-c3cncs3)nc3c2CCC3)cc1 [Compound 45, 2-(4-(2-(Thiazol-5-yl)-6,7-dihydro-5H-cyclopenta[d]pyrimidin-4-yloxy)phenyl)acetic acid]
76	–	O=C(O)Cc1ccc(Oc2nc(-c3cnc(Cl)s3)nc3c2CCC3)cc1 [Compound 46, 2-(4-(2-(2-Chlorothiazol-5-yl)-6,7-dihydro-5H-cyclopenta[d]pyrimidin-4-yloxy)phenyl)acetic acid]
79	–	NC(=O)c1ccc(-c2nc3c(c(Oc4ccc(CC(=O)O)cc4)n2)CCC3)s1 [Compound 47, 2-(4-(2-(5-Carbamoylthiophen-2-yl)-6,7-dihydro-5H-cyclopenta[d]pyrimidin-4-yloxy)phenyl)acetic acid]
78	–	N#Cc1ccc(-c2nc3c(c(Oc4ccc(CC(=O)O)cc4)n2)CCC3)s1 [Compound 48, 2-(4-(2-(5-Cyanothiophen-2-yl)-6,7-dihydro-5H-cyclopenta[d]pyrimidin-4-yloxy)phenyl)acetic acid]
59	–	O=C(O)Cc1ccc(Oc2nc(-c3ccc(Br)s3)nc3c2CCC3)cc1 [Compound 49, 2-(4-(2-(5-Bromothiophen-2-yl)-6,7-dihydro-5H-cyclopenta[d]pyrimidin-4-yloxy)phenyl)acetic acid]
47	–	Cc1sc(-c2nc3c(c(Oc4ccc(CC(=O)O)cc4)n2)CCC3)cc1Br [Compound 50, 2-(4-(2-(4-Bromo-5-methylthiophen-2-yl)-6,7-dihydro-5H-cyclopenta[d]pyrimidin-4-yloxy)phenyl)acetic acid]
84	–	CSc1ccc(-c2nc3c(c(Oc4ccc(CC(=O)O)cc4)n2)CCC3)s1 [Compound 51, 2-(4-(2-(5-(Methylthio)thiophen-2-yl)-6,7-dihydro-5H-cyclopenta[d]pyrimidin-4-yloxy)phenyl)acetic acid]
53	–	CS(=O)(=O)c1ccc(-c2nc3c(c(Oc4ccc(CC(=O)O)cc4)n2)CCC3)s1 [Compound 52, 2-(4-(2-(5-(Methylsulfonyl)thiophen-2-yl)-6,7-dihydro-5H-cyclopenta[d]pyrimidin-4-yloxy)phenyl)acetic acid]
51	–	O=C(O)Cc1ccc(Oc2nc(-c3ccc(Br)cc3)nc3c2CCC3)cc1 [Compound 53, 2-(4-((2-(4-Bromophenyl)-6,7-dihydro-5H-cyclopenta[d]pyrimidin-4-yl)oxy)phenyl)acetic acid]
